{
  "source": "patent US8609649B2",
  "about": "“Compositions and methods for the diagnosis, treatment, and prevention of amyotrophic lateral sclerosis and related neurological diseases” (Brandeis University, priority 2007, dated 2013)",
  "key": {"diabetic rats": {"test_system": "diabetic rats", "settings": "cited from earlier work"}, "hypertensive subjects": {"test_system": "hypertensive subjects", "settings": "93 hypertensive subjects age greater than 50 years, compared with placebo; cited from earlier work"}, "[1]": {"test_system": "diabetic hyperlipidemic mice", "settings": "cited from earlier work"}, "[2]": {"test_system": "humans with systolic hypertension and moderately severe diastolic heart failure", "settings": "16 weeks, 23 humans; cited from earlier work"}, "[3]": {"settings": "cited from earlier work"}, "SOD-1 Cys111": {"target": "SOD-1 Cys111 (Homo sapiens, UniProt P00441)", "sequence (P00441 2-154 limits assumed)": "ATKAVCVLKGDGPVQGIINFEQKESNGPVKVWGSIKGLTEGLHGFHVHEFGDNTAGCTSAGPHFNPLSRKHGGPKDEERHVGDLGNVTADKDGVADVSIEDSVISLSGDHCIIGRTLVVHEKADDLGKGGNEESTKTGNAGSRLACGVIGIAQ", "test": "Intersubunit crosslinking of SOD-1", "assay_type": "biochemical", "settings": "FIG. 16"}, "AGE formation": {"test_system": "AGE formation", "settings": "in vitro; cited from earlier work"}, "[4]": {"settings": "humans; cited from earlier work"}, "mice": {"test_system": "mice", "settings": "cited from earlier work"}, "proteasome": {"test_system": "proteasome", "test": "Proteasome activity in SOD-1-expressing stably transfected NIH/3T3 cell lines", "assay_type": "cell-based", "settings": "NIH/3T3 cell lines expressing the SOD-1 variant", "description": "Therefore, one aspect of the invention relates to monitoring proteasome activity to screen for potential ALS therapeutic compounds. FIG. 2 illustrates the results of using SOD-1 expressing cells (eG93A SOD-1 expressing clones; wild-type SOD-1 expressing clones; and […] G93A SOD-1 expressing clones) for said purpose. In certain embodiments, the assay involves administration of different concentrations of a given compound to G93A- and wild-type SOD-1 cell lines, and assaying proteasome activity. Successful compounds, in analogy to […]/G93A double mutant (FIG. 2), will relieve G93A SOD-1 associated proteasome inhibition. […] With successful hits, SOD-1 protein can be immunopurified from cell cultures to determine if there is any direct chemical bonding to SOD-1. pcDNA-3 vector with wild-type SOD-1, G93A SOD-1, […] SOD-1, […] G93A SOD-1 cDNA sequence were prepared by standard site-directed mutagenesis techniques. NIH/3T3 cells were maintained in Dulbecco's modified Eagle's medium (ATCC, Mannassas, Va.) supplemented with 10% newborn calf serum (Invitrogen, Carlsbad, Calif.). Cells were transfected with the plasmids using Lipofectamine 2000 (Invitrogen, Carlsbad, Calif.). A mock transfection was performed and cells were transfected under the same conditions but using either empty pcDNA-3 expression vector or no vector (to test the efficiency of selection). […]"}, "cultured motor neurons [5]": {"test_system": "cultured motor neurons", "test": "Viability of motor neurons microinjected with plasmid encoding SOD-1 variants", "assay_type": "cell-based, mouse", "settings": "motor neurons expressing the SOD-1 variant, 10 days of observation, linear curve fit", "description": "(§1) Dissociation of spinal cord-dorsal root ganglia from embryonic day 13 CD 1 mice (Charles River Laboratories, Wilmington, Mass.), plating on poly-D-lysine-coated coverslips, culture media, and identification of motor neurons were as previously described. Roy, J., Minotti, S., Dong, L., Figlewicz, D. A., and Durham, H. D. (1998) J. Neurosci. 18, 9673-9684. Cultures were used 3-6 weeks after plating.\n(§2) Subcloning of SOD-1G93A and SOD-1 wt cDNAs into the BamHI/HindIII sites of pcDNA3 (Invitrogen) was performed previously using cDNAs provided by Dr. Denise Figlewicz (University of Michigan, Ann Arbor, Mich.). Wang, J., Xu, G., and Borchelt, D. R. (2002) Neurobiol. Dis. 9, 139-148. Trp 4 Phe (W32F) mutations were created by site-specific mutagenesis of SOD-1 G93A and SOD-1 wt (TOP Gene Technologies, Quebec, Canada), producing SOD-1 W32F/G93A and SOD-1 W32F mutants, respectively. Intranuclear microinjection of plasmids was used to express SOD-1 constructs in motor neurons and to assess their effects on the survival and formation of inclusions as previously described Durham, H. D., Roy, J., Dong, L., and Figlewicz, D. A. (1997) J. Neuropathol. Exp. Neurol. 56, 523-530.\nFor viability experiments, motor neurons containing the co-injected fluorescent marker were counted daily under epifluorescence microscopy beginning 24 h post-microinjection. The number of motor neurons was expressed as a percentage of those present at 24 h to exclude those dying from injury during microinjection. The morphology of each cell was also evaluated by phase microscopy. All experiments involved a minimum of six cultures per condition with 20-80 motor neurons (average of 40) analyzed per culture. All experimental groups were analyzed simultaneously using cultures from the same batch, but each set of conditions was assessed for reproducibility in more than one culture batch. For viability experiments, injectates were coded by an independent researcher, and cell counts for viability were carried out blind to the identity of the experimental condition. Rates of cell death were calculated by a linear curve fit of the data (see FIG. 11) and are expressed as the percentage of death/day. The lowest observed linear regression r2 value was 0.94, and the average value was 0.96.\nFor the survival assays, statistical significance was determined using analysis of variance between groups (SigmaStat, Systat Software, Inc., Point Richmond, Calif.). Significance was established at p less than or equal to 0.05. Data for percentage of motor neurons with inclusions were tested for normal distribution and then compared using a one-tailed, two-sample t test for equal means under the assumption of unequal variance. A null hypothesis of equal means was rejected when p is less than or equal to 0.05."}, "cultured motor neurons [6]": {"test_system": "cultured motor neurons", "test": "SOD-1-positive cytoplasmic inclusions in microinjected motor neurons", "assay_type": "cell-based, mouse", "description": "as §1\nas §2, with “523-530. […]” for “523-530.”\nFor the survival assays, statistical significance was determined using analysis of variance between groups (SigmaStat, Systat Software, Inc., Point Richmond, Calif.). […]"}, "[7]": {"settings": "12 weeks therapy, diabetic hypertensive rats"}},
  "data": [
    {"molecule": "Cc1sc[n+](CC(=O)c2ccccc2)c1C.[Cl-]", "note": "[ALT-711, alagebrium chloride]", "values": [
      {"measurement": "levels of AGEs, RAGE expression, diabetic nephropathy, myocardial stiffness", "setting": "diabetic rats; diabetic rats", "result": "decrease"},
      {"measurement": "pulse pressure and arterial stiffness", "setting": "hypertensive subjects", "result": "significant reduction"},
      {"measurement": "atherosclerosis, cholesterol and systolic blood pressure", "setting": "[1]", "result": "attenuated atherosclerosis and decreased cholesterol and systolic blood pressure"},
      {"measurement": "left ventricular mass, left ventricular filling, patient ratings of quality of life", "setting": "[2]", "result": "decreased left ventricular mass, improved left ventricular filling, and improved patient ratings of quality of life"}
    ]},
    {"molecule": "CC(=O)NCCNC(=N)NN.Cl", "note": "[ALT-946, N-(2-acetamidoethyl)hydrazinecarboximidamide hydrochloride]", "values": [
      {"measurement": "decrease of albuminuria compared with aminoguanidine therapy", "setting": "diabetic rats; [7]", "result": 250, "unit": "%"},
      {"measurement": "renal AGEs by histologic analysis", "setting": "diabetic rats; [7]", "result": "reduce renal AGEs"},
      {"measurement": "albuminuria", "setting": "diabetic rats; rat model, used at the onset of diabetes and initiated after 16 weeks of diabetes", "result": "reduced albuminuria"}
    ]},
    {"molecule": "N=C(N)NN", "note": "[Aminoguanidine]", "values": [
      {"measurement": "nephropathy, retinopathy, and vessel elasticity", "setting": "diabetic rats; diabetic rats", "result": "improve"},
      {"measurement": "incidence of glomerulonephritis", "setting": "[3]; higher dose", "result": "increased incidence"},
      {"measurement": "proteinuria", "setting": "[3]; lower dose, P<0.001", "result": "equally effective"},
      {"measurement": "retinopathy progression", "setting": "[3]; lower dose, P=0.03", "result": "preventing retinopathy progression"},
      {"measurement": "serious side effects", "setting": "[3]; lower dose", "result": "free of serious side effects"}
    ]},
    {"molecule": "O=C1C=CC(=O)N1CCSSCCN1C(=O)C=CC1=O", "note": "[DTME]", "values": [
      {"measurement": "intersubunit crosslinking of SOD-1 Cys111", "setting": "SOD-1 Cys111", "result": "intersubunit crosslinking"}
    ]},
    {"molecule": "C=CS(=O)(=O)CCCCCCS(=O)(=O)C=C", "note": "[HBVS]", "values": [
      {"measurement": "intersubunit crosslinking of SOD-1 Cys111", "setting": "SOD-1 Cys111", "result": "intersubunit crosslinking"}
    ]},
    {"molecule": "CN(C)C(=N)N=C(N)N", "note": "[Metformin]", "values": [
      {"measurement": "AGE formation", "setting": "AGE formation", "result": "prevent AGE formation"}
    ]},
    {"molecule": "O=C(C[n+]1ccsc1)c1ccccc1.[Br-]", "note": "[N-phenacylthiazolium bromide]", "values": [
      {"measurement": "AGEs", "setting": "diabetic rats; diabetic rat models", "result": "decrease AGEs"},
      {"measurement": "nephropathy as measured by proteinuria", "setting": "diabetic rats; diabetic rat models", "result": "has not decreased nephropathy"}
    ]},
    {"molecule": "Cc1ncc(CO)c(CN)c1O", "note": "[Pyridoxamine]", "values": [
      {"measurement": "cholesterol levels", "setting": "diabetic rats; compared with aminoguanidine", "result": "lowered cholesterol levels more than aminoguanidine"},
      {"measurement": "diabetic nephropathy", "setting": "diabetic rats; compared with aminoguanidine", "result": "inhibited diabetic nephropathy equally to aminoguanidine"},
      {"measurement": "AGE formation", "setting": "diabetic rats; nondiabetic and diabetic rats", "result": "retarded AGE formation"},
      {"measurement": "weight", "setting": "diabetic rats; nondiabetic and diabetic rats", "result": "mild weight loss"}
    ]},
    {"molecule": "CCCCC1=NC2(CCCC2)C(=O)N1Cc1ccc(-c2ccccc2-c2nnn[nH]2)cc1", "note": "[irbesartan]", "values": [
      {"measurement": "vascular inflammation", "setting": "[4]", "result": "decreased vascular inflammation"},
      {"measurement": "AGE formation", "setting": "AGE formation", "result": "effective in vitro at decreasing AGE formation"}
    ]},
    {"molecule": "CCCCc1nc(Cl)c(CO)n1Cc1ccc(-c2ccccc2-c2nn[nH]n2)cc1", "note": "[losartan]", "values": [
      {"measurement": "AGE formation", "setting": "AGE formation", "result": "effective in vitro at decreasing AGE formation"}
    ]},
    {"molecule": "CCC[C@H](N[C@@H](C)C(=O)N1[C@H](C(=O)O)C[C@@H]2CCCC[C@@H]21)C(=O)OCC", "note": "[perindopril]", "values": [
      {"measurement": "RAGE levels", "setting": "[4]", "result": "decreased RAGE levels"},
      {"measurement": "atherosclerosis", "setting": "mice", "result": "inhibited atherosclerosis"}
    ]},
    {"molecule": "CCCc1nc2c(C)cc(-c3nc4ccccc4n3C)cc2n1Cc1ccc(-c2ccccc2C(=O)O)cc1", "note": "[telmisartan]", "values": [
      {"measurement": "AGE formation", "setting": "AGE formation", "result": "effective in vitro at decreasing AGE formation"}
    ]},
    {"molecule": "O=C(O)CN1C[C@@H](c2cccs2)SC[C@H](N[C@@H](CCc2ccccc2)C(=O)O)C1=O", "note": "[temocaprilat]", "values": [
      {"measurement": "AGE formation", "setting": "AGE formation", "result": "effective in vitro at decreasing AGE formation"}
    ]},
    {"molecule": "CCCCC(=O)N(Cc1ccc(-c2ccccc2-c2nnn[nH]2)cc1)[C@H](C(=O)O)C(C)C", "note": "[valsartan]", "values": [
      {"measurement": "AGE formation", "setting": "AGE formation", "result": "effective in vitro at decreasing AGE formation"}
    ]},
    {"molecule": "SOD-1^G93A: disease-causing mutant copper/zinc superoxide dismutase with the G93A mutation", "values": [
      {"measurement": "proteasome activity", "setting": "proteasome", "result": "near complete inhibition"},
      {"measurement": "rate of death of motor neurons", "setting": "cultured motor neurons [5]", "result": 6.8, "unit": "%/day"}
    ]},
    {"molecule": "SOD-1^W32F/G93A: SOD-1 with the double mutation W32F and G93A", "values": [
      {"measurement": "percentage of motor neurons with SOD-1 inclusions", "setting": "cultured motor neurons [6]; days 5 and 7, versus SOD-1G93A", "result": "No significant difference"},
      {"measurement": "percentage of motor neurons with SOD-1 inclusions", "setting": "cultured motor neurons [6]; post-microinjection day 3, versus SOD-1G93A, p<0.005", "result": "significantly lower proportion"},
      {"measurement": "rate of death of motor neurons", "setting": "cultured motor neurons [5]", "result": 3.6, "unit": "%/day"}
    ]},
    {"molecule": "SOD-1^W32F: SOD-1wt with Trp-32 replaced with Phe", "values": [
      {"measurement": "rate of death of motor neurons", "setting": "cultured motor neurons [5]", "result": 4.3, "unit": "%/day"}
    ]},
    {"molecule": "SOD-1^wt: wild-type human copper/zinc superoxide dismutase", "values": [
      {"measurement": "rate of death of motor neurons", "setting": "cultured motor neurons [5]", "result": 3.0, "unit": "%/day"}
    ]}
  ]
}
